From patent publication US8598207B2, “Compositions containing opioid antagonists” (Adolor Corporation, priority 2004, dated 2013)
Read-outs that look alike come from different tables or passages of the source.

Key:
[1] = Blood:plasma distribution ratio; format: in vitro ADME; conditions: blood and plasma
[2] = Solubility in water; format: physicochemical

blood plasma ratio [1] | Solubility in water ([2]; dihydrate) | SMILES | Solubility in water ([2]; listed as compound of formula (II), dihydrate) | Solubility in water [2]
0.68 | extremely low solubility in water | C[C@H]1CN(C[C@H](Cc2ccccc2)C(=O)NCC(=O)O)CC[C@@]1(C)c1cccc(O)c1 [Alvimopan, [[2(S)-[[4(R)-(3-hydroxyphenyl)-3(R),4-dimethyl-1-piperidinyl]methyl]-1-oxo-3-phenylpropyl]amino]acetic acid dihydrate] | low solubility in water except at low or high pH conditions | 
 |  | C[C@H]1CN(C[C@H](Cc2ccccc2)C(=O)O)CC[C@@]1(C)c1cccc(O)c1.O [active metabolite, (αS,3R,4R)-4-(3-hydroxyphenyl)-3,4-dimethyl-α-(phenylmethyl)-1-piperidinepropanoic acid monohydrate] |  | extremely low solubility in water
